Tests used:
[1] = system: SNU761 cells expressing HA-TM4SF5 and FLAG-SLAMF7; assay: Immunofluorescence microscopy of SLAMF7 localization (Pearson's correlation); assay type: cell-based, human; settings: 2.5 µM, 24 h, vs DMSO (FIG. 15g-h)
Experimental: After putting a cover glass into each well of a 12-well plate, 10 µg/ml fibronectin (35600, BD Biosciences) diluted in PBS was added thereto and left at room temperature for 1 hour for coating. After washing three times with PBS, 20,000 cells were seeded on each cover glass and cultured in a cell incubator at 37°C for 16 hours. After cultivation, the various expression vectors mentioned above were transfected using Lipofectamine 3000 (L3000015, Invitrogen) and cultured for 24 hours, and then isoxazole was treated or not treated for 24 hours. The cells were fixed with cold 99% methanol at room temperature for 15 minutes and then blocked with 1% BSA in PBS for 1 hour. Primary antibodies, anti-FLAG (NB600-344, Novus Biologicals), anti-LAMP1 (#9091, Cell Signaling Tech,), anti-ZO-1 (402200, Invitrogen), anti-HA (901515, BioLegend), and anti-SLAMF7 (sc-390840, Santa Cruz Biotech.), were diluted in 1% BSA in PBS at a ratio of 1:500 and reacted at 4°C for 16 hours. The next day, the cover glasses were washed three times with PBS, and then fluorescence-conjugated secondary antibodies (Alexa Fluor 488 [goat: A11055 and mouse: A21202] and 555 [goat: A21432 and mouse: A31570] from Invitrogen) were diluted in 1% BSA in PBS at a ratio of 1:500 and reacted at room temperature for 1 hour. After washing three times with PBS, mounting was performed using ProLong™ Gold Antifade (P36930, Invitrogen). Cells were randomly photographed using a Nikon Eclipse Ti microscope with a C2 confocal system, and then the images were analyzed using NIS-Elements software (Nikon, Melville, NY, USA), and colocalization of SLAMF7 with LAMP1 or ZO-1 was calculated using Pearson's correlation coefficients. All images were photographed under the same software settings and equally corrected with Adobe Photoshop. Each dot in the graphs represents a result measured from a single cell.
SNU449-TM4SF5 cells overexpressing TM4SF5 were seeded on cover glasses pre-coated with collagen Type I (10 µg/ml), and 15 hour later, PD-L1-HA cDNA was transfected using Lipofectamine 3000 (Thermo Fisher). […] After reacting again with secondary antibodies at room temperature for 30 minutes (TRITC fluorescence for LAMP1, TRITC or Alexa Fluor® 488 fluorescence for TM4SF5, and FITC fluorescence for PD-L1 or SLAMF7), the expression levels, localizations, and colocalizations (indicated in yellow) of the fluorescently-stained factors were observed using a confocal fluorescence microscope.
(a) SNU761 cells expressing HA-EV or HA-TM4SF5 and FLAG-SLAMF7 were stored at 4°C and then cultured at 37°C for the given periods. […] The colocalization coefficient was calculated by Pearson's correlation (b). […]

SNU449-EV cells = assay: Cell migration tracking, control cells; assay type: cell-based, human; settings: SNU449-EV, 2.5, 5.0, or 10.0 µM, 17 hours (FIG. 7)
Experimental: SNU449-TM4SF5 cells, which were made to express TM4SF5 using a lentivirus in human hepatocellular carcinoma cells SNU449, and SNU449-EV cells, into which a control vector (empty vector, EV) was injected so that TM4SF5 is not expressed, were seeded to a density of 40% in 8-chamber plates (Thermo) coated with 10 µg/ml collagen type 1 (Advanced Biomatrix). Three hours after seeding in a cell culture environment containing 10% FBS (GenDEPOT), DMSO and drugs were treated in the culture medium at the indicated concentrations. After treating with the drugs, the positions of the same moving cells were repeatedly photographed using a microscope every 20 minutes for 17 hours. The cells were photographed using an IX81-ZDC microscope (Olympus) equipped with a UPLSAPO 10X2, NA0.4 Super Apochromatic objective lens (Olympus). While photographing the cells, a general cell culture environment was created by constantly injecting 5% CO2 at a rate of 40-60 mL/min at 37°C using a controller (Live Cell Instrument). The migration distance and path of the cells were calculated using the "Track Object" application of MetaMorph software (Molecular Devices LLC). […]

Compound	SLAMF7 colocalized at the lysosomal membrane [1]	SLAMF7 expression/localization at the plasma membrane (PM) [1]	cell migration (SNU449-EV cells)
Cc1ccc(C(=O)Nc2ccc(-c3cc(-c4ccc(O)cc4)no3)cc2)cc1 [ST-5-002, N-(4-(3-(4-hydroxyphenyl)isoxazole-5-yl)phenyl)-4-methylbenzamide]	decreased	rather increased	–
CC(=O)Nc1ccc(-c2cc(-c3ccc(O)cc3)no2)cc1 [ST-5-001, N-(4-(3-(4-hydroxyphenyl)isoxazole-5-yl)phenyl)acetamide]	decreased	rather increased	–
COc1ccc(-c2cc(-c3ccc(NC(C)=O)cc3)no2)cc1 [ST-2-001, N-(4-(5-(4-methoxyphenyl)isoxazole-3-yl)phenyl)acetamide]	–	–	did not change

Source: patent publication EP4772500A1, “NOVEL ISOXAZOLE COMPOUND AS TM4SF5-SPECIFIC INHIBITOR AND USE THEREOF” (Seoul National University R&DB Foundation, priority 2023, dated 2025)
